Among the data in patent publication US10106542B2, “Substituted 6,7-dihydropyrazolo[1,5-a]pyrazines as negative allosteric modulators of mGluR2 receptors” (Janssen Pharmaceutica NV, priority 2013, dated 2018) are ED50 values, retold here.

Each structure is given as a SMILES string.

The subject of this test is Male Wiga Wistar rats. Kind of test: Reversal of LY-404039-induced decrease of palpebral opening in apomorphine-challenged rats. Particulars: Rattus norvegicus, reversal of LY-404039-induced decrease of palpebral opening (cumulative score >26) in apomorphine challenged rats. The format is in vivo. The procedure: 6) Reversal of LY-404039-Induced Decrease of Palpebral Opening in Apomorphine-Challenged Rats.
Male Wiga Wistar rats (Crl:WI; Charles River Germany; 220±40 g) were housed under standard laboratory conditions (21±2° C.; 50-65% relative humidity; light-dark cycle set at 12 h; lights on at 6.00 h) and fasted overnight prior to the start of the experiments (tap water remained available ad libitum). During the test period, they were housed in individual cages. The local Ethical Committee approved all studies in compliance with the Declaration of Helsinki. Palpebral opening was scored every 5 min over the first hour after injection of apomorphine (1.0 mg/kg, i.v.) in animals either pretreated or not pretreated with LY-404039 (2.5 mg/kg, s.c.) at 1 h prior to the apomorphine injection. The animals were also pretreated with test compound or solvent at a predefined interval before apomorphine challenge. The score system was: (5) exophthalmos, (4) wide open, (3) open for three-quarters, (2) half open, (1) open for one-quarter, (0) closed. The scores for palpebral opening were cumulated over the 60-min observation period. A cumulative palpebral opening score >26 was selected for drug-induced reversal of the LY-404039-induced decrease of palpebral opening (occurrence in 3.2% of control animals pretreated with LY-404039 (n=154) versus in 99.5% of control rats not pretreated with LY-404039 (n=6335)).
In animals receiving apomorphine alone the median palpebral opening is 43 whereas in animals receiving apomorphine and LY-404039, the median palpebral opening is 17.

Regarding `Cc1cc(-c2cnn3c2C(=O)N(c2ccc(C(F)(F)F)cc2)C[C@@H]3C)ccn1` [compound 1, (7S)-7-Methyl-3-(2-methylpyridin-4-yl)-5-[4-(trifluoromethyl)phenyl]-6,7-dihydropyrazolo[1,5-a]pyrazin-4(5H)-one], the ED50 (Route PO) was determined as 0.45 mg/kg and the ED50 (Route SC) worked out at 0.3 mg/kg.

A word on the ED50: it is the midpoint of the dose-response relation.
